For assay [1], the target named is T1, EGFR WT (Homo sapiens, UniProt P00533).
T1 construct: purchased Thermo Fisher, Carlsbad, CA ERBB1 PR7295B
Put plainly: Enzymatic assay EGFR WT (method c). The format is biochemical. The note with it: [EGFR WT]=2 nM, [ATP]=1 mM, [Peptide 22]=1 μM. As to the method:
(§1) A 2× stock solution of HER2 WT (ERBB2 0108-0000-1; ProQinase, Freiburg, Germany) corresponding to method a, was prepared as described below. Alternatively, a 2× stock solution of HER2YVMA (custom purification; Viva biotech, Shanghai, China) corresponding to method b, was prepared as described below. For method c, a 2× stock of EGFR (ERBB1 PR7295B, Thermo Fisher, Carlsbad, CA) was prepared as described below. All 2× solutions were prepared in buffer containing 50 mM HEPES, pH 7.5, 10 mM MnCl2, MgCl2, 0.005% Tween 20, 1 mM TCEP. 25 ul of 2× enzyme solution was added to a Seahorse low volume 384-well polypropylene assay plate (201288-100, Seahorse Bioscience, Chicopee, MA) containing 1 μl of compound serially diluted in 50% DMSO. To initiate the reaction, 25 μl of solution containing 2× final concentration of ATP and ProfilerPro Peptide 22 (760366, Perkin Elmer Hopkinton, MA) was added to each well. The reactions were separated on an LC3000 (Caliper Life Sciences) or a LabChip EZReader (Perkin Elmer) in kinetic mode.
(§2) At the conclusion of each assay, the data were exported from the instrument as a .rda file (LC3000) and processed in proprietary software, EZReviewer, which determines the percent of substrate converted to product within a given cycle as (P/P+S)*100 by measuring the amplitude of substrate and product peaks. Cycle time varied with amount of compounds tested between 8 and 12 cycles. Initial velocity (0-3600 s) from each reaction was determined from the slope of a plot of percent conversion at each cycle versus time (seconds). Percent inhibition was determined by dividing the slope of each reaction by the uninhibited control using 100*(1-(x/uninhibited control)). IC50 estimates were obtained by plotting the concentration of inhibitor versus percent inhibition in GraphPad Prism (GraphPad Software, San Diego, CA) using log[inhibitor] versus Response (Variable Slope Model); Y=Min+((Max-Min)/(1+((IC50/x)^Hillslope)))
(§3) • a) [HER2 WT]=12.5 nM, [ATP]=25 μM, [Peptide 22]=1 μM (ATP KMapp˜25 μM) • b) [HER2YVMA]=5 nM, [ATP]=25 μM, [Peptide 22]=1 μM (ATP KMapp˜15 μM) • c) [EGFR WT]=2 nM, [ATP]=1 mM, [Peptide 22]=1 μM (ATP KMapp˜25 μM)

The target of assay [2] is T2, HER2 wildtype (WT) protein (Homo sapiens, UniProt P04626).
T2 construct: BT474 and N87 cell lines which endogenously overexpress the HER2 wildtype (WT) protein; endogenous in cells; host or cells: BT474, N87
T2 sequence (P04626 23-1255): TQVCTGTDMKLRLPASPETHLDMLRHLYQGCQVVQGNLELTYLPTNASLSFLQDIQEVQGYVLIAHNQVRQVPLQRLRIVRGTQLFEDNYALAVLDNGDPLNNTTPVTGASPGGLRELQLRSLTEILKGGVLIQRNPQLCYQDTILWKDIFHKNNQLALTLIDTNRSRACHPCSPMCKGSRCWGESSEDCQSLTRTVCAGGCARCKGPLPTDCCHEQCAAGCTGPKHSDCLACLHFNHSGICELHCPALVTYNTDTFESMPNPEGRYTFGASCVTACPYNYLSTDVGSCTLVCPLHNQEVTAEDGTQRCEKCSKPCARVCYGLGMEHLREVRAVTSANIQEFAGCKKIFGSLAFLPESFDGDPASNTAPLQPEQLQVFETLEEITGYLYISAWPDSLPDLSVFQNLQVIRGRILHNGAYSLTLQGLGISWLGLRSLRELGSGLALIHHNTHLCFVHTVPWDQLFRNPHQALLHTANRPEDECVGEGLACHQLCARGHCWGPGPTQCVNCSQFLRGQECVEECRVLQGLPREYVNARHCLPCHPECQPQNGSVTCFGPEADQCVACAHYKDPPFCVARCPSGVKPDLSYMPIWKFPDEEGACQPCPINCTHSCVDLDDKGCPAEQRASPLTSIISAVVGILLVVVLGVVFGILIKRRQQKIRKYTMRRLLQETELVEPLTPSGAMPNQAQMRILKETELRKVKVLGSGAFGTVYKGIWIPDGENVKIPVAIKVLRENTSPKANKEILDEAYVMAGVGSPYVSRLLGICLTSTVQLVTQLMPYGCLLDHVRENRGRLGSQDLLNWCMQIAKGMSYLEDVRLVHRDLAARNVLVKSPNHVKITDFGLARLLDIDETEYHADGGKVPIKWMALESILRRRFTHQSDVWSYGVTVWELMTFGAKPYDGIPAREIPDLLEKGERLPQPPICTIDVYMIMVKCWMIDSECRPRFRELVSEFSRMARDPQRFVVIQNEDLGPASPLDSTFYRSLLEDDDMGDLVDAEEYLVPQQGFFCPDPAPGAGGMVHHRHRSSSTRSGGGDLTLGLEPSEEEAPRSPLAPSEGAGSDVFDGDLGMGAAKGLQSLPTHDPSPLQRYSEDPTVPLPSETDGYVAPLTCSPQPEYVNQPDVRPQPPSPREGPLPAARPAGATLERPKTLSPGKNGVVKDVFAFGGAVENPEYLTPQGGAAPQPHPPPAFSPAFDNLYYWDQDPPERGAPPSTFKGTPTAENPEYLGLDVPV
Put plainly: HER2 signaling (pHER2 Tyr1248/total HER2 MSD) in BT474 cells. The assay is classed as cell-based. The note with it: 1.5 hr compound, 1% FBS. As to the method: In addition to the engineered cell lines, the following cell lines were used: BT474 (human breast carcinoma), N87 (human gastric carcinoma), NCI-H1781 (human lung adenocarcinoma), and A431 (human epidermoid carcinoma); all cell lines were obtained from the American Type Culture Collection (ATCC, Manassas, VA). NCI-H1781 were grown in complete RPMI 1640 (Life Technologies, Carlsbad, CA) supplemented with 15% fetal bovine serum (FBS, Life Technologies, Carlsbad, CA) and 1% Penicillin-Streptomycin (P/S, Life Technologies, Carlsbad, CA). N87 cells were grown in complete RPMI 1640 supplemented with 10% FBS and 1% P/S. BT474 and A431 cells were grown in DMEM (Life Technologies, Carlsbad, CA) supplemented with 10% FBS and 1% P/S. All cells were maintained and propagated in a humidified 5% CO2 incubator at 37° C.
HER2 signaling was assessed in BT474 and N87 cell lines which endogenously overexpress the HER2 wildtype (WT) protein, in NCI-H1781 cells which endogenously expresses a HER2 mutant protein containing a VC insertion in the kinase domain (HER2VC or G776delinsVC), and in engineered cell lines transduced to express the Her2 mutant protein containing the YVMA insertion (Hek293-HER2YVMA and BEAS2B-HER2YVMA).
BT474, N87, and NCI-H1781 were plated in 96-well tissue-culture treated plates (Corning Costar, Sigma-Aldrich) in full media and incubated overnight. Hek293-HER2YVMA and BEAS2B-HER2YVMA cells were plated in 96-well poly-D-lysine treated plates (BD Bioscience, San Jose, CA). For treatment with test compounds, the media was replaced with corresponding low serum media (1% FBS) containing test compound at 1.1, 0.37, 0.12, 0.041, 0.014, 0.005, 0.0014, 0.0005 μM or DMSO control (0.1%). Cells were incubated with compound for 1.5 hr at 37° C. After compound treatment, the media was removed and cells were lysed for 30 min on ice in complete MSD lysis buffer (prepared using MSD base lysis buffer (Meso-Scale Discovery) supplemented with cOmplete, EDTA-free Protease inhibitor cocktail (Roche), Phosphatase Inhibitor Cocktails 2 and 3 (Sigma-Aldrich), and 1 mM PMSF (Sigma-Aldrich)). Lysates were stored at −70° C. until further analysis.
HER2 signaling was evaluated using phospho (Tyr1248)/total ErbB2 whole cell lysate MSD plates (Meso-Scale Discovery, Gaithersburg, MD). The phospho HER2 signal was normalized to total HER2 for each sample; results are reported as % DMSO control. The normalized data was fitted using a sigmoidal curve analysis program (Graph Pad Prism version 6) with variable Hill slope to determine EC50 values.
The HER2 signaling results are provided in Table 4, under columns titled “BT474-pHER2 EC50”, “N87-pHER2 EC50”, and “NCI-H1781-pHER2 EC50”. Hek293-HER2YVMA ins fall under the heading “HEKYVMA-pHER2 EC50”, Ba/F3 HER2YVMA fall under the heading “Ba/F3 YVMA-pHER2 EC50” and BEAS2B-HER2YVMA fall under the heading “BEAS2B YVMA-pHER2 EC50”.

The target of assay [3] is T3, HER2 WT (Homo sapiens, UniProt P04626).
T3 construct: purchased ProQinase, Freiburg, Germany ERBB2 0108-0000-1
T3 sequence (P04626 23-1255): as above
Briefly: Enzymatic assay HER2 WT (method a). The assay is classed as biochemical. The note with it: [HER2 WT]=12.5 nM, [ATP]=25 μM, [Peptide 22]=1 μM. Here is the method: as §1, §2, §3

In assay [4] the target is HER2YVMA (Homo sapiens, UniProt P04626, INS775YVMA). Put plainly: Enzymatic assay HER2YVMA (method b). On the set-up: purchased Viva biotech, Shanghai, China custom purification. Particulars: [HER2YVMA]=5 nM, [ATP]=25 μM, [Peptide 22]=1 μM. The assay is classed as biochemical. Here is the method:
as §1, §2, §3

T1 sequence (P00533 25-1210): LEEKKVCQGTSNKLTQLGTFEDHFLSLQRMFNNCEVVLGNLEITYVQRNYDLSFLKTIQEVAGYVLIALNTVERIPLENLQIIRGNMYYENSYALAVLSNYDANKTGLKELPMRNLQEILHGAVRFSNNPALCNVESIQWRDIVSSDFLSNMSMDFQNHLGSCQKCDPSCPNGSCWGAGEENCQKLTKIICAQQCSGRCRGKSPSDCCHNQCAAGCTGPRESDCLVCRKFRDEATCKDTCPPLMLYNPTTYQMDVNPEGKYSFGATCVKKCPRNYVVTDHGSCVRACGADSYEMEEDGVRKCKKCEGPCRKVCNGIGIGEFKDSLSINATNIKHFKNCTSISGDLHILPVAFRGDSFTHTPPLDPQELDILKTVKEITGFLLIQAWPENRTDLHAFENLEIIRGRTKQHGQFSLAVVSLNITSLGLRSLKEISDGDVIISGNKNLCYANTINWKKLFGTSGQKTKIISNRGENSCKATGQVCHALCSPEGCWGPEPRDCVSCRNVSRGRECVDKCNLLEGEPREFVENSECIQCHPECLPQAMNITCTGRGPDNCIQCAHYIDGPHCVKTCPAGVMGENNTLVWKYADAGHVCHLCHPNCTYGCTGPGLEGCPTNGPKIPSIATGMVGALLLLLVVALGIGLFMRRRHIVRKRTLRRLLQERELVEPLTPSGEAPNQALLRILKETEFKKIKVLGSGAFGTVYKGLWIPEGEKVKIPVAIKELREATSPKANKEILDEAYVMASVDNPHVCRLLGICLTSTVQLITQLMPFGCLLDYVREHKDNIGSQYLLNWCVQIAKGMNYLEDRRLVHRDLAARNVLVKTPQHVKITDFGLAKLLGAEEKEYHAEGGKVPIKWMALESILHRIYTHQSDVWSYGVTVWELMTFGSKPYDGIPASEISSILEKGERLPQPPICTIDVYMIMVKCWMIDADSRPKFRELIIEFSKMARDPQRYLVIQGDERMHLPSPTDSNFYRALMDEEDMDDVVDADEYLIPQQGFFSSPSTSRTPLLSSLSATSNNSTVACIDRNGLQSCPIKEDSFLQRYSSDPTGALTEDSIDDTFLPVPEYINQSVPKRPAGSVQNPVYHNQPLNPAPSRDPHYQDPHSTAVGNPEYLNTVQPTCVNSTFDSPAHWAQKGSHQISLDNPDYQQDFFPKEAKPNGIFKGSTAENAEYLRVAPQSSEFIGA
Chain of HER2YVMA (P04626 with tags, fused parts or gaps INS775YVMA): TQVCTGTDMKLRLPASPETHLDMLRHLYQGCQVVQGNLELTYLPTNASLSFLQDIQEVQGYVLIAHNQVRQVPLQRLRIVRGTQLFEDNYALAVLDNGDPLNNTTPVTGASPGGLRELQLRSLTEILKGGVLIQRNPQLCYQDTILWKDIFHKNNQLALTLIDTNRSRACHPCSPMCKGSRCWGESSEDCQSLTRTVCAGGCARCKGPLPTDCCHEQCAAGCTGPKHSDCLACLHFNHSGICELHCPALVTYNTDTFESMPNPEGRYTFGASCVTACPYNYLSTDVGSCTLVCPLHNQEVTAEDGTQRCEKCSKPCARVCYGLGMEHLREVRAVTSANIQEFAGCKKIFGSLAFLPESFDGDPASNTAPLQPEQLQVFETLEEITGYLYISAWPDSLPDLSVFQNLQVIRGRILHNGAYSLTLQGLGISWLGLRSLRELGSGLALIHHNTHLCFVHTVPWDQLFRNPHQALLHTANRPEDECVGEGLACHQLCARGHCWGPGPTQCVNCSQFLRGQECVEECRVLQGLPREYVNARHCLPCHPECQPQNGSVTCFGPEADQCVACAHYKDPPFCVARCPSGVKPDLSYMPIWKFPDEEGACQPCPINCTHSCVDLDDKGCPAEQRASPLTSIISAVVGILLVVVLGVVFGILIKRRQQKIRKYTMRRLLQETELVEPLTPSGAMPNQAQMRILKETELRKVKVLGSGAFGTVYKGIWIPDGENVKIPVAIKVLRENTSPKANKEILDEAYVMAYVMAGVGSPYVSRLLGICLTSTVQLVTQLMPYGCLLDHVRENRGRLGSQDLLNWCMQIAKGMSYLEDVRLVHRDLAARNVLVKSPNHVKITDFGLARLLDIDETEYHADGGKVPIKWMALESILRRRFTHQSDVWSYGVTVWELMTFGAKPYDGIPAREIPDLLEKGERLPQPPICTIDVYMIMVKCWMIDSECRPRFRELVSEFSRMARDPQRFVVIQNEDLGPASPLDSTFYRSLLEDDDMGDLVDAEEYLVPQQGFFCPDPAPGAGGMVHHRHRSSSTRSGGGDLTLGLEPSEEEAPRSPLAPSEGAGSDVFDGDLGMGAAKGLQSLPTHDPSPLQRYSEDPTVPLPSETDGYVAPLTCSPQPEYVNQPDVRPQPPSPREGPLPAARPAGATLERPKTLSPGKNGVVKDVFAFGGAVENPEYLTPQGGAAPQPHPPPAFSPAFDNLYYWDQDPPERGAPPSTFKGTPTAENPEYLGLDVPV

Turning to `Cc1cc(Nc2ncnc3sc4c(c23)CCN(C(=O)/C=C/CN(C)C)C4)ccc1Oc1ccc2scnc2c1` [Compound 107, (E)-1-(4-((4-(benzo[d]thiazol-5-yloxy)-3-methylphenyl)amino)-5,8-dihydropyrido[4′,3′:4,5]thieno[2,3-d]pyrimidin-7(6H)-yl)-4-(dimethylamino)but-2-en-1-one], the IC50 – broadly, the concentration at which inhibition is half-maximal – in assay [1] is 1000 to 10000 nM; in assay [3] it was less than 100 nM; in assay [4] it was less than 100 nM. Besides, the EC50 – broadly, the concentration giving half of the maximal effect – in assay [2] was less than 100 nM.
For the compound `Cc1ccc(Oc2ccc(Nc3ncnc4sc5c(c34)CCN(C(=O)/C=C/CN3CCC(CO)(CO)CC3)C5)cc2C)cn1` [Compound 135], the IC50 in assay [1] is greater than 10000 nM; in assay [3], less than 100 nM; in assay [4] it was less than 100 nM. In assay [2], the EC50 was less than 100 nM.
`COc1cc(Nc2ncnc3sc4c(c23)CCN(C(=O)/C=C/CN(C)C)C4)ccc1Oc1ccccc1` [Compound 7, (E)-4-(dimethylamino)-1-(4-((3-methoxy-4-phenoxyphenyl)amino)-5,8-dihydropyrido[4′,3′:4,5]thieno[2,3-d]pyrimidin-7(6H)-yl)but-2-en-1-one]: the IC50 in assay [1] is greater than 10000 nM; in assay [3] it was less than 100 nM; in assay [4] it was less than 100 nM. The same compound displayed a half-maximal effective concentration (EC50) in assay [2] of less than 100 nM.
Regarding `Cc1ccc(Oc2ccc(Nc3ncnc4sc5c(c34)CCN(C(=O)/C=C/CN(C)C)CC5)cc2Cl)cn1` [Compound 167, (E)-1-(4-((3-Chloro-4-((6-methylpyridin-3-yl)oxy)phenyl)amino)-8,9-dihydro-5H-pyrimido[5′,4′:4,5]thieno[2,3-d]azepin-7(6H)-yl)-4-(dimethylamino)but-2-en-1-one], the IC50 was greater than 10000 nM in assay [1], 100 to 1000 nM in assay [3] and 100 to 1000 nM in assay [4]. In assay [2], this compound showed an EC50 of less than 100 nM.
Turning to `Cc1ccc(Oc2ccc(Nc3ncnc4sc5c(c34)CCN(C(=O)/C=C/CN3CCOCC3)C5)cc2C)cn1` [Compound 17, (E)-1-(4-((3-Methyl-4-((6-methylpyridin-3-yl)oxy)phenyl)amino)-5,6-dihydropyrido[4′,3′:4,5]thieno[2,3-d]pyrimidin-7(8H)-yl)-4-morpholinobut-2-en-1-one], the IC50 is greater than 10000 nM in assay [1], less than 100 nM in assay [3] and less than 100 nM in assay [4]. Also, the EC50 in assay [2] was less than 100 nM.
Consider `Cc1ccc(Oc2ccc(Nc3ncnc4sc5c(c34)C(C)CN(C(=O)C=CCN3CCOCC3)C5)cc2C)cn1` (single isomer, unassigned) [Compound 176], for which the IC50 in assay [1] was greater than 10000 nM; in assay [3], 100 to 1000 nM; in assay [4], 100 to 1000 nM. The compound further registered an EC50 in assay [2] of less than 100 nM.
On to `Cc1ccc(Oc2ccc(Nc3ncnc4sc5c(c34)CCN(C(=O)/C=C/CN3CCC(O)C(C)(C)C3)C5)cc2C)cn1` (centres unmarked) [Compound 114], for which the figures for the IC50 in assay [1], in assay [3] and in assay [4] were greater than 10000 nM, less than 100 nM and less than 100 nM, respectively. Also, the EC50 in assay [2] was less than 100 nM.
As for `COc1ccc(Oc2ccc(Nc3ncnc4sc5c(c34)CN(C(=O)/C=C/CN(C)C)C5)cc2C)cn1` [Compound 128, (E)-4-(dimethylamino)-1-(4-((4-((6-methoxypyridin-3-yl)oxy)-3-methylphenyl)amino)-5,7-dihydro-6H-pyrrolo[3′,4′:4,5]thieno[2,3-d]pyrimidin-6-yl)but-2-en-1-one], the IC50 was greater than 10000 nM in assay [1], 100 to 1000 nM in assay [3] and less than 100 nM in assay [4]. In assay [2], this compound yielded an EC50 of less than 100 nM.
In the case of `Cc1ccc(Oc2ccc(Nc3ncnc4sc5c(c34)C(C)N(C(=O)/C=C/CN(C)C)C5)cc2C)cn1` (centres unmarked) [Compound 141, (E)-4-(dimethylamino)-1-(5-methyl-4-((3-methyl-4-((6-methylpyridin-3-yl)oxy)phenyl)amino)-5,7-dihydro-6H-pyrrolo[3′,4′:4,5]thieno[2,3-d]pyrimidin-6-yl)but-2-en-1-one], the values for the IC50 in assay [1], in assay [3] and in assay [4] were greater than 10000 nM, less than 100 nM and less than 100 nM, respectively. The same compound registered an EC50 in assay [2] of less than 100 nM.
As for `C=CC(=O)N1Cc2sc3ncnc(Nc4ccc(Oc5ccc(C)nc5)c(C)c4)c3c2C(C)C1` (single isomer, unassigned) [Compound 146], the IC50 was 1000 to 10000 nM in assay [1], less than 100 nM in assay [3] and less than 100 nM in assay [4]. In addition, the EC50 in assay [2] is less than 100 nM.
For the compound `O=C(/C=C/CN1CCOCC1)N1CCc2c(sc3ncnc(Nc4ccc(Oc5ccc6ncnn6c5)c(Cl)c4)c23)C1` [Compound 18], the IC50 is greater than 10000 nM in assay [1], less than 100 nM in assay [3] and less than 100 nM in assay [4]. Moreover, the EC50 in assay [2] is less than 100 nM.
`Cc1ccc(Oc2ccc(Nc3ncnc4sc5c(c34)CCN(C(=O)/C=C/CN3CCCC(F)(CO)C3)C5)cc2C)cn1` (centres unmarked) [Compound 150]: the results for the IC50 in assay [1], in assay [3] and in assay [4] were 1000 to 10000 nM, less than 100 nM and less than 100 nM, respectively. In addition, the EC50 in assay [2] was less than 100 nM.
As to `Cc1ccc(Oc2ccc(Nc3ncnc4sc5c(c34)C(C)N(C(=O)C=CCN(C)C)C5)cc2C)cn1` (single isomer, unassigned) [Compound 147], the figures for the IC50 in assay [1], in assay [3] and in assay [4] were greater than 10000 nM, less than 100 nM and less than 100 nM, respectively. Besides, in assay [2], the EC50 was less than 100 nM.
With `Cc1ccc(Oc2ccc(Nc3ncnc4sc5c(c34)CC(C)N(C(=O)C=CCN(C)C)C5C)cc2C)cn1` (single isomer, unassigned) [Compound 162], the IC50 was greater than 10000 nM in assay [1], 1000 to 10000 nM in assay [3] and 1000 to 10000 nM in assay [4]. The EC50 in assay [2] fell in the range of 100 to 350 nM.

The values above are taken from patent publication US20240391931A1 (Bristol-Myers Squibb Company, priority 2021, published 2024).
